Data: patent US20240252508A1, “Novel glucose uptake inhibitors for use in the treatment of cancer” (NOVELYEAST BV, priority 2021, published 2024)
Where two headings read alike, the source gives them in different places.

Assays:
yeast Hxt7 carrier = target: T1, yeast Hxt7 carrier (Saccharomyces cerevisiae, UniProt P39004); experiment: Glucose uptake by Hxt7 expressed in hxt^0 gal2Δ (RE700A) yeast; type: cell-based, S. cerevisiae
T1 construct: HA (C); expressed in transfected cells; host or cells: S. cerevisiae RE700A (hxt0 gal2Δ) in A5; EBY.VW4000 (hxt0 erg4Δ) in A7; plasmid 'pHXT7'
T1 sequence (P39004 whole entry): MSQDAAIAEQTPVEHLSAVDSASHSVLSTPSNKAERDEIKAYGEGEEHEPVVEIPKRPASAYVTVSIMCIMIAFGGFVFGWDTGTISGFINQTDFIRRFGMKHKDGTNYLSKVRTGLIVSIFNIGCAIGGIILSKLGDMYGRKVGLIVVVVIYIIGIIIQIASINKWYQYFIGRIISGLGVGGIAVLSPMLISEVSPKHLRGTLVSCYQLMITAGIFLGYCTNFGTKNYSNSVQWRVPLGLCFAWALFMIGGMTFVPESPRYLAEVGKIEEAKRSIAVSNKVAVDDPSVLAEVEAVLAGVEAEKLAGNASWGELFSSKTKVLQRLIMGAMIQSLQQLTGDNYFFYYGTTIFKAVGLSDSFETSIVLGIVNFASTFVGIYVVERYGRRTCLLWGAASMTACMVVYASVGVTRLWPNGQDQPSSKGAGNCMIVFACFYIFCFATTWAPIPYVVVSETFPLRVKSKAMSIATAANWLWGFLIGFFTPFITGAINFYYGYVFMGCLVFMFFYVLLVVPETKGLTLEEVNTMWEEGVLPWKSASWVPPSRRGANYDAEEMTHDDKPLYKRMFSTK
Source text: To assess whether WBC-A could inhibit glucose transport activity of the GLUT carriers, we expressed human GLUT1^V69M and GLUT4^V85M in a hxt^0 gal2Δ (RE700A) and hxt^0 erg4Δ (EBY.VW4000) strain, respectively. These strains are both deficient in glucose uptake due to absence of all active glucose transporters. For functional GLUT expression in yeast, specific mutations had to be introduced in both sequences, whereas for GLUT4, an additional ERG4 gene deletion was required^64,65,66.
Zero-trans uptake of radioactively labeled [U-^14C]glucose, [U-^14C]fructose or [U-^14C]galactose by S. cerevisiae cells was determined in accordance with previous studies^44,66. Cells were grown on different carbon sources depending on the experiment. For measuring glucose uptake activity in the tps1Δ and tps1Δ hxtA strains (FIG. 1b,c), cells were grown on YP medium containing 3% glycerol (measurement of 10s). Typically, for compound characterization and kinetic studies in wild type and tps1Δ strains, cells were (pre)grown on Complete Synthetic medium supplemented with 2% galactose (measurement of 10s). […] The loaded filter was transferred to a scintillation vial containing 3 mL liquid scintillation cocktail (Ultima-Flo M, Perkin Elmer) and counted using the Hidex 300 SL. […]

hexokinase = experiment: In vitro hexokinase activity in extracts of wild type cells; type: biochemical, S. cerevisiae; conditions: 50 μM WBC-A
Protocol: In vitro hexokinase activity was determined as described previously 43, s. As such, cells were first grown to exponential phase on complete Synthetic medium supplemented with 2% galactose. The cells were harvested and washed with ice-cold 25 mM MES buffer pH 6. Subsequently, cells were resuspended in lysis buffer (50 mM HEPES pH 7, 150 mM NaCl, 2.5 mM MgCl2, 5% glycerol and 1% Triton X-100) containing protease inhibitor after which the cells were mechanically lysed. After protein level determination, total protein concentration was diluted to 0.1 mg/mL in reaction buffer (50 mM HEPES pH 7, 150 mM NaCl, 2.5 mM MgCl2, 5% glycerol). For measuring activity, reaction buffer was supplemented with 0.8 mg/mL NADP^+ and 50 μg/mL Glu6P dehydrogenase. After temperature equilibration of the plate at 30° C., the reaction was started by adding both ATP and glucose to the reaction buffer. OD340 was measured using the Synergy H1 Hybrid reader and hexokinase activity was determined based on the linear increase of absorbance in the first 10-20s.

[1] = system: A549 lung adenocarcinoma cells; experiment: Steady-state glucose consumption and lactate production in A549 cells; type: cell-based, human; conditions: 25 μM, 1 mM glucose, 8 h
Protocol: The influence of WBC compounds on the steady-state glucose consumption rate was studied in the A549 adenocarcinoma and KMS-12-PE multiple myeloma cell lines. As such, different parameters needed to be optimized depending on whether cells were adherent or in suspension. As such, A549 cells were incubated at 125,000 cells/well in a 24-well plate in 300 μL RPMI medium for 8 h. For the KMS-12-PE cell line, 100,000 cells/well were incubated in 100 μL RPMI medium in a 96-well plate for 8 h. Medium was collected, spun down and HPLC-analyzed for measuring glucose and lactate levels. Metabolite levels were corrected for cell number, which always varied little over the span of 8 h. For every condition, at least 4 technical repeats were included.

tps1Δ cells = experiment: Zero-trans glucose uptake in tps1Δ yeast cells; type: cell-based, S. cerevisiae; conditions: for Ki: Dixon plot analysis
Protocol: Zero-trans uptake of radioactively labeled [U-^14C]glucose, [U-^14C]fructose or [U-^14C]galactose by S. cerevisiae cells was determined in accordance with previous studies^44,66. Cells were grown on different carbon sources depending on the experiment. For measuring glucose uptake activity in the tps1Δ and tps1Δ hxtA strains (FIG. 1b,c), cells were grown on YP medium containing 3% glycerol (measurement of 10s). Typically, for compound characterization and kinetic studies in wild type and tps1Δ strains, cells were (pre)grown on Complete Synthetic medium supplemented with 2% galactose (measurement of 10s). In the experiments on the influence of hexokinase activity on the sugar uptake rate, the measurement duration was shortened to 5s and cells were always grown on YP medium containing 3% glycerol and 2% ethanol. After harvesting, cells were washed twice with ice-cold 25 mM MES-buffer pH 6, and resuspended in their respective medium without sugar to a final concentration of 45 mg (wet weight)/mL. The amount of added tracer was estimated to give a response close to at least 1000 counts per min in order to adequately counter background noise. Cells were first preincubated for 10 min at 30° C. with the compound to acclimate the cells to the temperature and to allow adequate interaction with the compound prior to uptake. Next, hexose sugar was mixed with the cell suspension, which was then incubated for 5 or 10 s, depending on the experiment, after which the cells were rapidly filtered over a glass microfiber filter (Whatman GF/C) and washed three times with ice-cold dH2O. The loaded filter was transferred to a scintillation vial containing 3 mL liquid scintillation cocktail (Ultima-Flo M, Perkin Elmer) and counted using the Hidex 300 SL. Three blank measurements per strain were typically included to account for background signal, for which the cells were first quenched before adding the radioactive label.

Cc1nc(Sc2nnc3n2CCCCC3)c2c(-c3cccs3)csc2n1 [WBC-A]
IC50 (yeast Hxt7 carrier): 51 µM
Inhibition of glucose uptake by Hxt7 at 25 μM (yeast Hxt7 carrier; 25 μM, 2.5 mM glucose, hxt^0 gal2Δ strain): inhibited
Effect on in vitro hexokinase activity (hexokinase): No significant effect
Glucose consumption and lactate production in A549 cells [1]: did not cause inhibition
Ki (tps1Δ cells): 8.35 µM
Ki (tps1Δ cells; printed K′, read-out: K′i, glucose uptake, tps1Δ cells): 35.4 µM
Type of inhibition of glucose uptake, tps1Δ cells (tps1Δ cells; Lineweaver-Burk plot analysis): mixed type
